Test results: patent US9040573B2, “Anti-fungal agent” (Nihon Nohyaku Co., Ltd., priority 2011, dated 2015)
≈ marks a conversion by molar mass, not a printed value. Where two headings read alike, the source gives them in different places.

Assays:
Scytalidium dimidiatum = assay: Antifungal Activity Test 1: MIC by broth microdilution method (Alamar Blue); format: cell-based; conditions: for MIC: growth inhibited by 80% or more; for MIC90: concentration to be MIC in 9 strains out of the 10 strains (90%)
Description: Scytalidium dimidiatum strain of clinical isolate obtained by separation and identification from nail or stratum corneum of patients with superficial mycosis was used. The fungi pre-cultured on an SDA medium was suspended in 0.1% (w/v) Tween 80-containing sterile saline and the suspension was filtered through gauze to collect arthrospore. This was suspended in 0.1% (w/v) Tween 80-containing sterile saline, and added to a 20% Alamar Blue-containing medium to 2×10^4 cells/mL to give a fungal inoculum solution.
(§1) Each drug was used after dissolving in DMSO (dimethyl sulfoxide).
(§2) The minimum inhibitory concentration (MIC) was measured by a broth microdilution method. That is, RPMI1640 medium (Sigma-Aldrich) was buffered with 0.165 M morpholine propanesulfonic acid (MOPS, Wako Pure Chemical Industries, Ltd.) to pH 7.0, and a given amount of a solution of the drug in DMSO was added thereto to prepare 2-fold dilution series within the range of 0.00098-4 μg/mL. This was added to a 96-well microplate by 100 μL, a fungal inoculum solution (100 μL, final concentration of fungi to be added: 1.0×10^4 cells/mL) was added, and the mixture was cultured at 35° C. An Alamar Blue reagent was added in advance to the culture medium (final addition concentration: 10%) and, at the time point when the Alamar Blue reagent in the drug-free growth control group changed from blue to red, the culture was discontinued and the absorbance (differential optical density at 570 nm based on 590 nm served as reference) measured. The minimum concentration of the drug that inhibited the growth of the fungus in the growth control group by 80% or more was taken as MIC. The concentration to be MIC (MIC90) in 9 strains out of the 10 strains (90%) measured was determined.
Reference documents for measurement method: Takako Shinoda et al.: opinion proposed by Committee for Clinical Laboratory Standards of The Japanese Society for Medical Mycology (1995-1997), Method for antifungal susceptibility testing of filamentous fungus, Medical Mycology Journal, 40: 239-257, 1999. Clinical Laboratory Standards Institute/National Committee for Clinical Laboratory Standards. Reference method for broth dilution antifungal susceptibility testing of filamentous fungus. Approved Standard M38-A2. Wayne, Pa.: National Committee for Clinical Laboratory Standards, 2008. Test Results

Scytalidium hyalinum = assay: Antifungal Activity Test 2: MIC by broth microdilution method (Alamar Blue); format: cell-based
Description: as §2
Scytalidium hyalinum strain of clinical isolate available from CBS (Netherlands) was used. The fungus was pre-cultured in an SDA medium, 0.1% (w/v) Tween 80-containing sterile saline was added to give a suspension, which was filtered through gauze to collect arthrospore. This was suspended in 0.1% (w/v) Tween 80-containing sterile saline, and added to a 20% Alamar Blue-containing medium to 2×10^4 cells/mL to give a fungal inoculum solution.
as §1
The test method was the same as in the aforementioned antifungal activity test 1, and the minimum concentration of the drug that inhibited the growth of the fungus in the growth control group by 80% or more was taken as MIC. The MIC range of the 4 strains measured and the geometric mean (GM) of each drug were determined.

[1] = Neoscytalidium dimidiatum, clinical isolate 530129, read-out: MIC
[2] = Neoscytalidium dimidiatum, clinical isolate 530142, read-out: MIC
[3] = Neoscytalidium dimidiatum, clinical isolate 530251, read-out: MIC
[4] = Neoscytalidium dimidiatum, clinical isolate 530621, read-out: MIC
[5] = Neoscytalidium dimidiatum, clinical isolate 530633, read-out: MIC
[6] = Neoscytalidium dimidiatum, clinical isolate 530914, read-out: MIC
[7] = Neoscytalidium dimidiatum, clinical isolate 530946, read-out: MIC
[8] = Neoscytalidium dimidiatum, clinical isolate 530999, read-out: MIC
[9] = Neoscytalidium dimidiatum, clinical isolate 531581, read-out: MIC
[10] = Neoscytalidium dimidiatum, clinical isolate 531869, read-out: MIC
[11] = Neoscytalidium dimidiatum, read-out: MIC90
[12] = Neoscytalidium hyalinum, clinical isolate CBS200.88, growth inhibited by 80% or more, read-out: MIC
[13] = Neoscytalidium hyalinum, clinical isolate CBS545.95, growth inhibited by 80% or more, read-out: MIC
[14] = Neoscytalidium hyalinum, clinical isolate CBS601.85, growth inhibited by 80% or more, read-out: MIC
[15] = Neoscytalidium hyalinum, clinical isolate CBS619.84, growth inhibited by 80% or more, read-out: MIC
[16] = Neoscytalidium hyalinum, geometric mean of the 4 strains measured, read-out: GM (geometric mean of MIC)
[17] = Neoscytalidium hyalinum, range of the 4 strains measured, read-out: MIC range

SMILES: CCC(C)(C)c1ccc(CC(C)CN2C[C@@H](C)O[C@@H](C)C2)cc1 (stereo partly drawn) [AMO, amorolfine]
- MIC (Scytalidium dimidiatum; [1]): 0.5 µg/mL (≈ 1.57 µM)
- MIC (Scytalidium dimidiatum; [2]): 1 µg/mL (≈ 3.15 µM)
- MIC (Scytalidium dimidiatum; [3]): 2 µg/mL (≈ 6.3 µM)
- MIC (Scytalidium dimidiatum; [4]): 1 µg/mL (≈ 3.15 µM)
- MIC (Scytalidium dimidiatum; [5]): 0.5 µg/mL (≈ 1.57 µM)
- MIC (Scytalidium dimidiatum; [6]): 2 µg/mL (≈ 6.3 µM)
- MIC (Scytalidium dimidiatum; [7]): 1 µg/mL (≈ 3.15 µM)
- MIC (Scytalidium dimidiatum; [8]): 1 µg/mL (≈ 3.15 µM)
- MIC (Scytalidium dimidiatum; [9]): 0.5 µg/mL (≈ 1.57 µM)
- MIC (Scytalidium dimidiatum; [10]): 0.5 µg/mL (≈ 1.57 µM)
- MIC90 (Scytalidium dimidiatum; [11]): 2 µg/mL (≈ 6.3 µM)
- MIC (Scytalidium hyalinum; [12]): 2 µg/mL (≈ 6.3 µM)
- MIC (Scytalidium hyalinum; [13]): 2 µg/mL (≈ 6.3 µM)
- MIC (Scytalidium hyalinum; [14]): 2 µg/mL (≈ 6.3 µM)
- MIC (Scytalidium hyalinum; [15]): 2 µg/mL (≈ 6.3 µM)
- MIC (Scytalidium hyalinum; [16]): 2 µg/mL (≈ 6.3 µM)
- MIC (Scytalidium hyalinum; [17]): 2 µg/mL (≈ 6.3 µM)

SMILES: C[C@@H]1[C@H](O)[C@@H](C)/C=C/C=C/C=C/C=C/C=C/C=C/C=C/[C@H](O[C@@H]2O[C@H](C)[C@@H](O)[C@H](N)[C@@H]2O)C[C@@H]2O[C@](O)(C[C@@H](O)C[C@@H](O)[C@H](O)CC[C@@H](O)C[C@@H](O)CC(=O)O[C@H]1C)C[C@H](O)[C@H]2C(=O)O [AMPB, amphotericin B]
- MIC (Scytalidium dimidiatum; clinical isolate 530129): 0.25 µg/mL (≈ 0.271 µM)
- MIC (Scytalidium dimidiatum; clinical isolate 530142): 0.13 µg/mL (≈ 0.141 µM)
- MIC (Scytalidium dimidiatum; clinical isolate 530251): 0.25 µg/mL (≈ 0.271 µM)
- MIC (Scytalidium dimidiatum; clinical isolate 530621): 0.25 µg/mL (≈ 0.271 µM)
- MIC (Scytalidium dimidiatum; clinical isolate 530633): 0.25 µg/mL (≈ 0.271 µM)
- MIC (Scytalidium dimidiatum; clinical isolate 530914): 0.13 µg/mL (≈ 0.141 µM)
- MIC (Scytalidium dimidiatum; clinical isolate 530946): 0.25 µg/mL (≈ 0.271 µM)
- MIC (Scytalidium dimidiatum; clinical isolate 530999): 0.5 µg/mL (≈ 0.541 µM)
- MIC (Scytalidium dimidiatum; clinical isolate 531581): 0.25 µg/mL (≈ 0.271 µM)
- MIC (Scytalidium dimidiatum; clinical isolate 531869): 0.25 µg/mL (≈ 0.271 µM)
- MIC90 (Scytalidium dimidiatum): 0.25 µg/mL (≈ 0.271 µM)
- MIC (Scytalidium hyalinum; clinical isolate CBS200.88, growth inhibited by 80% or more): 0.5 µg/mL (≈ 0.541 µM)
- MIC (Scytalidium hyalinum; clinical isolate CBS545.95, growth inhibited by 80% or more): 1 µg/mL (≈ 1.08 µM)
- MIC (Scytalidium hyalinum; clinical isolate CBS601.85, growth inhibited by 80% or more): 0.5 µg/mL (≈ 0.541 µM)
- MIC (Scytalidium hyalinum; clinical isolate CBS619.84, growth inhibited by 80% or more): 0.5 µg/mL (≈ 0.541 µM)
- GM (geometric mean of MIC) (Scytalidium hyalinum; geometric mean of the 4 strains measured): 0.59 µg/mL
- MIC range (Scytalidium hyalinum; range of the 4 strains measured): 0.5 to 1 µg/mL

SMILES: c1ccc(-c2ccc(C(c3ccccc3)n3ccnc3)cc2)cc1 (stereo not drawn) [BFZ, bifonazole]
- MIC (Scytalidium dimidiatum; [1]): 0.25 µg/mL (≈ 0.805 µM)
- MIC (Scytalidium dimidiatum; [2]): 0.13 µg/mL (≈ 0.419 µM)
- MIC (Scytalidium dimidiatum; [3]): 0.25 µg/mL (≈ 0.805 µM)
- MIC (Scytalidium dimidiatum; [4]): 0.25 µg/mL (≈ 0.805 µM)
- MIC (Scytalidium dimidiatum; [5]): 0.13 µg/mL (≈ 0.419 µM)
- MIC (Scytalidium dimidiatum; [6]): 0.13 µg/mL (≈ 0.419 µM)
- MIC (Scytalidium dimidiatum; [7]): 0.25 µg/mL (≈ 0.805 µM)
- MIC (Scytalidium dimidiatum; [8]): 0.13 µg/mL (≈ 0.419 µM)
- MIC (Scytalidium dimidiatum; [9]): 0.25 µg/mL (≈ 0.805 µM)
- MIC (Scytalidium dimidiatum; [10]): 0.13 µg/mL (≈ 0.419 µM)
- MIC90 (Scytalidium dimidiatum; [11]): 0.25 µg/mL (≈ 0.805 µM)
- MIC (Scytalidium hyalinum; [12]): 0.063 µg/mL (≈ 0.203 µM)
- MIC (Scytalidium hyalinum; [13]): 0.063 µg/mL (≈ 0.203 µM)
- MIC (Scytalidium hyalinum; [14]): 0.031 µg/mL (≈ 0.0999 µM)
- MIC (Scytalidium hyalinum; [15]): 0.13 µg/mL (≈ 0.419 µM)
- MIC (Scytalidium hyalinum; [16]): 0.063 µg/mL (≈ 0.203 µM)
- MIC (Scytalidium hyalinum; [17]): 0.031 to 0.13 µg/mL (≈ 0.0999 to 0.419 µM)

SMILES: Clc1ccccc1C(c1ccccc1)(c1ccccc1)n1ccnc1 [CTZ, clotrimazole]
- MIC (Scytalidium dimidiatum; [1]): 0.5 µg/mL (≈ 1.45 µM)
- MIC (Scytalidium dimidiatum; [2]): 0.5 µg/mL (≈ 1.45 µM)
- MIC (Scytalidium dimidiatum; [3]): 0.25 µg/mL (≈ 0.725 µM)
- MIC (Scytalidium dimidiatum; [4]): 0.5 µg/mL (≈ 1.45 µM)
- MIC (Scytalidium dimidiatum; [5]): 0.5 µg/mL (≈ 1.45 µM)
- MIC (Scytalidium dimidiatum; [6]): 0.5 µg/mL (≈ 1.45 µM)
- MIC (Scytalidium dimidiatum; [7]): 0.5 µg/mL (≈ 1.45 µM)
- MIC (Scytalidium dimidiatum; [8]): 0.25 µg/mL (≈ 0.725 µM)
- MIC (Scytalidium dimidiatum; [9]): 0.25 µg/mL (≈ 0.725 µM)
- MIC (Scytalidium dimidiatum; [10]): 0.25 µg/mL (≈ 0.725 µM)
- MIC90 (Scytalidium dimidiatum; [11]): 0.5 µg/mL (≈ 1.45 µM)
- MIC (Scytalidium hyalinum; [12]): 0.13 µg/mL (≈ 0.377 µM)
- MIC (Scytalidium hyalinum; [13]): 0.13 µg/mL (≈ 0.377 µM)
- MIC (Scytalidium hyalinum; [14]): 0.13 µg/mL (≈ 0.377 µM)
- MIC (Scytalidium hyalinum; [15]): 0.25 µg/mL (≈ 0.725 µM)
- MIC (Scytalidium hyalinum; [16]): 0.15 µg/mL (≈ 0.435 µM)
- MIC (Scytalidium hyalinum; [17]): 0.13 to 0.25 µg/mL (≈ 0.377 to 0.725 µM)

SMILES: OC(Cn1cncn1)(Cn1cncn1)c1ccc(F)cc1F [FCZ, fluconazole]
- MIC (Scytalidium dimidiatum; [1]): > 4 µg/mL
- MIC (Scytalidium dimidiatum; [2]): > 4 µg/mL
- MIC (Scytalidium dimidiatum; [3]): > 4 µg/mL
- MIC (Scytalidium dimidiatum; [4]): > 4 µg/mL
- MIC (Scytalidium dimidiatum; [5]): > 4 µg/mL
- MIC (Scytalidium dimidiatum; [6]): > 4 µg/mL
- MIC (Scytalidium dimidiatum; [7]): > 4 µg/mL
- MIC (Scytalidium dimidiatum; [8]): > 4 µg/mL
- MIC (Scytalidium dimidiatum; [9]): > 4 µg/mL
- MIC (Scytalidium dimidiatum; [10]): > 4 µg/mL
- MIC90 (Scytalidium dimidiatum; [11]): > 4 µg/mL
- MIC (Scytalidium hyalinum; [12]): > 4 µg/mL
- MIC (Scytalidium hyalinum; [13]): > 4 µg/mL
- MIC (Scytalidium hyalinum; [14]): 2 µg/mL (≈ 6.53 µM)
- MIC (Scytalidium hyalinum; [15]): > 4 µg/mL
- MIC (Scytalidium hyalinum; [16]): > 4 µg/mL
